Test system: ARPE-19 cells
Assay: Cell protection against blue light-induced photooxidation of A2E, extract treated after A2E
Format: cell-based
Conditions: Homo sapiens, ARPE-19, 20 min; 30 μM after A2E 20 μM (positive control), blue light 430 nm 6000 lux 20 min; read-out: cell viability compared to the normal group
Procedure: To investigate the photooxidation by blue light induction (post-treatment), ARPE-19 cells were seeded to a 96-well plate at 1×10^4 cell/well and then incubated→(24 hr later) A2E (20 μM) pre-treated once→(after 24 hr) post-treated with a ginseng berry extract (25, 50, 100 μg/ml) once→(after 24 hr) irradiated with blue light (6000 lux, 20 min)→and then, (after 24 hr) the cell viability was measured by using the cell count kit. Since the A2E accumulated in human retinal pigment epithelial cells (ARPE-19 cells) is known to induce cytotoxicity when irradiated with blue light (BL), cell protective capability and cell viability against blue light-induced photooxidation were analyzed. Human retinal pigment epithelial cells (ARPE-19 cells) were aliquoted in a 96-well tissue culture plate at a density of 1×10^4 cells/well and cultured for 24 hours. After treating with A2E at a concentration of 20 μM and culturing for 24 hours, the experimental group was treated with 25, 50, and 100 μg/mL of the ginseng berry extract, a positive control group was treated with 30 μM of lutein instead of the ginseng berry extract, and A2E was accumulated in a negative control group without preliminary drug treatment. After culturing for 24 hours, blue light (BL, 430 nm, 6000 lux) was irradiated for 20 minutes, and after 24 hours, the cell viability was measured by using the cell count kit.

**Q.** How did the viability at 30 µM turn out when CC1=C[C@H](O)CC(C)(C)[C@H]1/C=C/C(C)=C/C=C/C(C)=C/C=C/C=C(C)/C=C/C=C(C)/C=C/C1=C(C)C[C@@H](O)CC1(C)C [lutein] was run?
**A.** 88.2%
